# Reference: ChEMBL document CHEMBL2346515, “Discovery of 4-alkylamino-7-aryl-3-cyanoquinoline LRRK2 kinase inhibitors” (Bioorg Med Chem Lett, 2013)
# Experiments:
# [1] = target: Tyrosine-protein kinase Lck (Homo sapiens) (UniProt P06239); experiment: Inhibition of LCK (unknown origin) at 10 uM by single point assay
# [2] = target: Glycogen synthase kinase-3 beta (Homo sapiens) (UniProt P49841); experiment: Inhibition of GSK3beta (unknown origin) at 10 uM by single point assay
# [3] = target: T1, Serine/threonine-protein kinase 3 (Homo sapiens) (UniProt Q13188); experiment: Inhibition of STK3 (unknown origin) at 10 uM by single point assay
# T1 sequence (whole entry): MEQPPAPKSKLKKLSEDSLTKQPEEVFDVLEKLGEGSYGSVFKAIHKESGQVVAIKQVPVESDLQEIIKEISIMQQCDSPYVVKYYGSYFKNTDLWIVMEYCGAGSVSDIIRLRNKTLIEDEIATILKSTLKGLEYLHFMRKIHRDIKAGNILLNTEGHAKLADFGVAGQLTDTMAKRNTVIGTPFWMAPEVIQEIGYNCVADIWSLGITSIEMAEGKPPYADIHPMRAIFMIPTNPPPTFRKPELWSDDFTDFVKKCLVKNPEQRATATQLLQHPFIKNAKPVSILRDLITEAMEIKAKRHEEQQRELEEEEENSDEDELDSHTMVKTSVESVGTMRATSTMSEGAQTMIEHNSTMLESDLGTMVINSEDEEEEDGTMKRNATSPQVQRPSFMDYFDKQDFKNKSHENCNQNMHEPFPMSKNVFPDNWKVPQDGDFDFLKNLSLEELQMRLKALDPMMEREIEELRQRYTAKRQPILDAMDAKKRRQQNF
# [4] = target: Tyrosine-protein kinase SYK (Homo sapiens) (UniProt P43405); experiment: Inhibition of SYK (unknown origin) at 10 uM by single point assay
# [5] = target: Leucine-rich repeat serine/threonine-protein kinase 2 (Homo sapiens, UniProt Q5S007); details: 10 uM
# Description: Inhibition of LRRK2 (unknown origin) at 10 uM by single point assay
# [6] = target: T2, Aurora kinase A (Homo sapiens) (UniProt O14965); experiment: Inhibition of AURKA (unknown origin) at 10 uM by single point assay
# T2 sequence (whole entry): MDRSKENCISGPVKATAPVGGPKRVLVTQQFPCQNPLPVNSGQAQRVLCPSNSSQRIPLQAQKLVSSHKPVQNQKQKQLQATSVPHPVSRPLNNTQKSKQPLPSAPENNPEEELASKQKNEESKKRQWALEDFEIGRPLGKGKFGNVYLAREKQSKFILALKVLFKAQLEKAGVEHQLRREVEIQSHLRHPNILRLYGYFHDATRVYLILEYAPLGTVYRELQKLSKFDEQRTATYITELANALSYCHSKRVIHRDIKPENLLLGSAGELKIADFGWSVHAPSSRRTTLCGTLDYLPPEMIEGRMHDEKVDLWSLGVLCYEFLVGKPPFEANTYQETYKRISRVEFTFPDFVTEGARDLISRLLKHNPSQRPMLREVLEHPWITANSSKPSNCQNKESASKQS
# [7] = target: Dual specificity protein kinase CLK1 (Homo sapiens) (UniProt P49759); experiment: Inhibition of CLK1 (unknown origin) at 10 uM by single point assay
# [8] = target: Mitogen-activated protein kinase 1 (Homo sapiens) (UniProt P28482); experiment: Inhibition of MAPK1 (unknown origin) at 10 uM by single point assay
# [9] = target: Insulin receptor (Homo sapiens) (UniProt P06213); experiment: Inhibition of INSR (unknown origin) at 10 uM by single point assay
# [10] = target: cAMP-dependent protein kinase catalytic subunit alpha (Homo sapiens) (UniProt P17612); experiment: Inhibition of PRKACA (unknown origin) at 10 uM by single point assay
# [11] = target: T3, Cyclin-dependent kinase 5/CDK5 activator 1 (Homo sapiens) (UniProt Q00535+Q15078); experiment: Inhibition of CDK5/p25 (unknown origin) at 10 uM by single point assay; format: protein-complex assay
# [12] = target: T4, Mitogen-activated protein kinase kinase kinase 7 (Homo sapiens) (UniProt O43318); experiment: Inhibition of MAP3K7 (unknown origin) at 1 uM by single point assay
# T4 sequence (whole entry): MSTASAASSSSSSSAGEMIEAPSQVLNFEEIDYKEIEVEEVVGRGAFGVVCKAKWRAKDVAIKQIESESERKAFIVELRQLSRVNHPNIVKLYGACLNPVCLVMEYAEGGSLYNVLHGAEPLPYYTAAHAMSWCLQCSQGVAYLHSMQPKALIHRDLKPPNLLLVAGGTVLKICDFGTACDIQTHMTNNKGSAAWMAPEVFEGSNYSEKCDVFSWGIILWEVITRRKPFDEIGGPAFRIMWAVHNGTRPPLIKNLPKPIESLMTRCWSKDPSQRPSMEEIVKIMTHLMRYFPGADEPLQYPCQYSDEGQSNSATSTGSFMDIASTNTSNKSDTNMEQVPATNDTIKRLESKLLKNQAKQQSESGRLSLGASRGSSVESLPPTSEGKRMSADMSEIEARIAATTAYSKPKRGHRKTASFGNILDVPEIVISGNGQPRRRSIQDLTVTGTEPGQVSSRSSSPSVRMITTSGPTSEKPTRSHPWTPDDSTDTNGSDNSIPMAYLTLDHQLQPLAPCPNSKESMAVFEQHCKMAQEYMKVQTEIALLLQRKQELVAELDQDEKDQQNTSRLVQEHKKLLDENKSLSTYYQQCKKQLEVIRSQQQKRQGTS
# [13] = test system: Mus musculus; experiment: In vivo inhibition of mouse LRRK2 G2019S mutant phosphorylation at Ser935 expressed in mouse brain at 30 mg/kg, po measured after 3 hrs by ELISA; format: functional
# [14] = target: PI3-kinase p110-alpha/p85-alpha (Homo sapiens) (UniProt P27986+P42336); experiment: Inhibition of PIK3CA/PIK3R1 (unknown origin) at 1 uM by single point assay; format: protein-complex assay
# [15] = Ratio of drug uptake in brain to plasma of mouse expressing mouse LRRK2 G2019S mutant at 30 mg/kg, po; format: ADME, organism-based; set-up: dose 30 mg/kg, route oral; details: read-out: BPR
# [16] = target: T3, Cyclin-dependent kinase 5/CDK5 activator 1 (Homo sapiens); experiment: Inhibition of CDK5/p25 (unknown origin) at 1 uM by single point assay; format: protein-complex assay
# [17] = target: Serine/threonine-protein kinase PAK 4 (Homo sapiens) (UniProt O96013); experiment: Inhibition of PAK4 (unknown origin) at 1 uM by single point assay
# [18] = target: Insulin receptor (Homo sapiens) (UniProt P06213); experiment: Inhibition of INSR (unknown origin) at 1 uM by single point assay
# [19] = target: RAC-alpha serine/threonine-protein kinase (Homo sapiens) (UniProt P31749); experiment: Inhibition of AKT1 (unknown origin) at 1 uM by single point assay
# [20] = target: Glycogen synthase kinase-3 beta (Homo sapiens) (UniProt P49841); experiment: Inhibition of GSK3beta (unknown origin) at 1 uM by single point assay
# T3 sequence (Q00535 whole entry): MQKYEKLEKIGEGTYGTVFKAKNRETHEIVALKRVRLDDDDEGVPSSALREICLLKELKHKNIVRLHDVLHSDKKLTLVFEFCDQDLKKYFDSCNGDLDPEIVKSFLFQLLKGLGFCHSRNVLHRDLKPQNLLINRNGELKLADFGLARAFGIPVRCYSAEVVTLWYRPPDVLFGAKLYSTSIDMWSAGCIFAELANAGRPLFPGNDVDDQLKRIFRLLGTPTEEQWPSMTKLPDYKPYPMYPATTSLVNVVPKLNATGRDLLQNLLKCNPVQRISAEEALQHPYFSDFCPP
# T3 sequence (Q15078 99-307 partner limits assumed): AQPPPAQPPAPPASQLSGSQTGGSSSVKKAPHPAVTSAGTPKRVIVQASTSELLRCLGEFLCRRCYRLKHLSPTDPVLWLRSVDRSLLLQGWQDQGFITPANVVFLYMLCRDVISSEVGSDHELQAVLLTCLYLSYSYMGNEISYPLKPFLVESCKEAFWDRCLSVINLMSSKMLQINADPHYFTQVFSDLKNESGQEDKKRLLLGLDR
# Sequence of Glycogen synthase kinase-3 beta (Homo sapiens) (P49841 whole entry, looked up): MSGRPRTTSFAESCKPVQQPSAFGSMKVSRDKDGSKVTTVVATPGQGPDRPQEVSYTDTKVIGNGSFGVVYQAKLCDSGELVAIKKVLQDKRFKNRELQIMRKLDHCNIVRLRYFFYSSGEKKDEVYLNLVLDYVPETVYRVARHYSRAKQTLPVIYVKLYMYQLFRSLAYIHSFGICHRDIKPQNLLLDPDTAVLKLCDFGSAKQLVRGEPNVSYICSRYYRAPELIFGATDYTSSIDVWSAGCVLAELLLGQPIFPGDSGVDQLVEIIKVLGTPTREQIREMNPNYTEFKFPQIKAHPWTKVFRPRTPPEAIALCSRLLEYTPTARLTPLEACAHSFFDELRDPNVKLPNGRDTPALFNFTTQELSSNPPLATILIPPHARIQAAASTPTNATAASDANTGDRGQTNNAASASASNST
# Sequence of Insulin receptor (Homo sapiens) (P06213 28-758 limits assumed): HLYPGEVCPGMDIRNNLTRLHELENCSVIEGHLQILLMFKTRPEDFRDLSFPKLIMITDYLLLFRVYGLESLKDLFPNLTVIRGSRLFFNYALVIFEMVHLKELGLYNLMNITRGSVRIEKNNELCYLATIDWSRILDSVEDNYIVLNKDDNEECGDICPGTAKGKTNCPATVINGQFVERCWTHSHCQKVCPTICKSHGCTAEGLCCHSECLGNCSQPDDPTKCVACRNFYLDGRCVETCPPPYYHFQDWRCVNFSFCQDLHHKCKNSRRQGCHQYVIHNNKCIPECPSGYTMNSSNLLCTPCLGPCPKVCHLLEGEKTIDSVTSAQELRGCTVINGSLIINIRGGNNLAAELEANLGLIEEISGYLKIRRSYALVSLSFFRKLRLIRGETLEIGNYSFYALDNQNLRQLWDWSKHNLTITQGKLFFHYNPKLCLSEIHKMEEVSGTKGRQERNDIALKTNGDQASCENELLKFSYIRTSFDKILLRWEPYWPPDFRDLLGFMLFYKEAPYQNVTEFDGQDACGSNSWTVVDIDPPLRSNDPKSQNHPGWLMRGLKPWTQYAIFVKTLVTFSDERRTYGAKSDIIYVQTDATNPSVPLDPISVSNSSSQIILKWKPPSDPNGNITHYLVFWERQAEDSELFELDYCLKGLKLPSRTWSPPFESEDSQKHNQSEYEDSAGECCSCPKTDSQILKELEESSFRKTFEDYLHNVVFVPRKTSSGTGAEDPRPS
# Sequence of Insulin receptor (Homo sapiens) (P06213 763-1382 limits assumed): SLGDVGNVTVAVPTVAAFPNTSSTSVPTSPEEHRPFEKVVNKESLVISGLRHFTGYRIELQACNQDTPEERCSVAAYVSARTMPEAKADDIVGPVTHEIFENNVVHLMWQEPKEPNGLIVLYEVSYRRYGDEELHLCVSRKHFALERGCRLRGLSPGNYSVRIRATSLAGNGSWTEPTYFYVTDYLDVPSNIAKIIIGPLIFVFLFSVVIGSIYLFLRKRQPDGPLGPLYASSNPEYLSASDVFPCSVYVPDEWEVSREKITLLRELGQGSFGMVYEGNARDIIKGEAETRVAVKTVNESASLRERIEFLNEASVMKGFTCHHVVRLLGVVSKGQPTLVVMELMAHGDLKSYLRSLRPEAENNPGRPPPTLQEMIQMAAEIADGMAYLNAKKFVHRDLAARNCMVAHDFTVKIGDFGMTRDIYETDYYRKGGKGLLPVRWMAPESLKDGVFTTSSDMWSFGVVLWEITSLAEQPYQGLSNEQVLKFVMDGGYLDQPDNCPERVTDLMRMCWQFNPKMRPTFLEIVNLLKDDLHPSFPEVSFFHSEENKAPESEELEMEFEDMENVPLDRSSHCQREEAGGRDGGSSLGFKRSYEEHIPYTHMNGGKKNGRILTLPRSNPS
# Sequence of Serine/threonine-protein kinase PAK 4 (Homo sapiens) (O96013 whole entry, looked up): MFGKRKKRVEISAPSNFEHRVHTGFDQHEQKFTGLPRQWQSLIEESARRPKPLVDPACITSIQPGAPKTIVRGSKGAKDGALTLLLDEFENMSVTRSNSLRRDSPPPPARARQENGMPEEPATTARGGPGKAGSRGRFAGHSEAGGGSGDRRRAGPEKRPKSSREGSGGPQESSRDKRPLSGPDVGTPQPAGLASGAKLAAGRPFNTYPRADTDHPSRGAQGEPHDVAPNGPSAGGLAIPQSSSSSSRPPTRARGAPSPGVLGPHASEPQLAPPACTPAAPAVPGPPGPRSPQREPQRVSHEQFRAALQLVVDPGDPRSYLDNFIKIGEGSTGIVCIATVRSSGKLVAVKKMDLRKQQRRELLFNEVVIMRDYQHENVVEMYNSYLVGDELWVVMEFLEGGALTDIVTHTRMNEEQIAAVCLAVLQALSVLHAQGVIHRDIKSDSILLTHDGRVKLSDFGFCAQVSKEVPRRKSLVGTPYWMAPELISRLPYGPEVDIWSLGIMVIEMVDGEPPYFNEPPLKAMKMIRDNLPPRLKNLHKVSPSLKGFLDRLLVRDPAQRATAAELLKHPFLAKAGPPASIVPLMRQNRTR
# Sequence of RAC-alpha serine/threonine-protein kinase (Homo sapiens) (P31749 whole entry): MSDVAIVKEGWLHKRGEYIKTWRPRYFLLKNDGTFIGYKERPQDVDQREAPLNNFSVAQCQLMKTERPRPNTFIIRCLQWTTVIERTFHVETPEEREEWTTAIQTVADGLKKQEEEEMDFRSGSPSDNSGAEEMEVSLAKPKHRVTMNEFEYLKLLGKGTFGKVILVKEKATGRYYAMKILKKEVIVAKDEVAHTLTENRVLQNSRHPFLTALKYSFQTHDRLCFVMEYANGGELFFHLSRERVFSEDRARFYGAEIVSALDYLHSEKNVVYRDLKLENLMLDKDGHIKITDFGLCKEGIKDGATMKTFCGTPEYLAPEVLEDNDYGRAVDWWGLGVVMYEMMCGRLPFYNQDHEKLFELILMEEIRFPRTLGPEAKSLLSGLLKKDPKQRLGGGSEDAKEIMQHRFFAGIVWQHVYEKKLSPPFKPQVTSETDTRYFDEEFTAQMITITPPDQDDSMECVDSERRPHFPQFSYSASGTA
# Sequence of Tyrosine-protein kinase Lck (Homo sapiens) (P06239 2-509 limits assumed): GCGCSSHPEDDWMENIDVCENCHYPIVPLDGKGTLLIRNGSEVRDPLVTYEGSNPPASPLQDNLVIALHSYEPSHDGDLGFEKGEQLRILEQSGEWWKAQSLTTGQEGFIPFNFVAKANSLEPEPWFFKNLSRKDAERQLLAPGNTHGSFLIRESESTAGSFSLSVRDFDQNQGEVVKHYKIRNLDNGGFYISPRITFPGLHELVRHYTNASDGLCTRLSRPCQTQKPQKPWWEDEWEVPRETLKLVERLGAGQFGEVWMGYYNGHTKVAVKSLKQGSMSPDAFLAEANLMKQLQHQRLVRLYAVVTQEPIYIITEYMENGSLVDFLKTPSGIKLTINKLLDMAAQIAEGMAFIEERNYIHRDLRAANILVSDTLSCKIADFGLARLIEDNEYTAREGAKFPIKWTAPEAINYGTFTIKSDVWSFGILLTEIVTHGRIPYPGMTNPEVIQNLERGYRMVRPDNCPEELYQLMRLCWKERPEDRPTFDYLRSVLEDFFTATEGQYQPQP
# Sequence of Dual specificity protein kinase CLK1 (Homo sapiens) (P49759 whole entry, looked up): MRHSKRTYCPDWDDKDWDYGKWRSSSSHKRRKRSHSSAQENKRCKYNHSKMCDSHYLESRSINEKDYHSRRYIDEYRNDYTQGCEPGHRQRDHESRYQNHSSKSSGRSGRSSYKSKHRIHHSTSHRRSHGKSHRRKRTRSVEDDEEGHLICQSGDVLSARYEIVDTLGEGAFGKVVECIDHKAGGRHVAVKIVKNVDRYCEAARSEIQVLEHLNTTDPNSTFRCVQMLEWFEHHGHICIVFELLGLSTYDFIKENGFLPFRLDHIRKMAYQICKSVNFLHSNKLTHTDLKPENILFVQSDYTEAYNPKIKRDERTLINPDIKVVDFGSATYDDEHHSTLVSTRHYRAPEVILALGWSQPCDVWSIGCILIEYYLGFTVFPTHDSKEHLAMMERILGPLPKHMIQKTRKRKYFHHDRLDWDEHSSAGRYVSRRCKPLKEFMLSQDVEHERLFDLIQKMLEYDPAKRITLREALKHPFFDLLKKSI
# Sequence of Mitogen-activated protein kinase 1 (Homo sapiens) (P28482 whole entry): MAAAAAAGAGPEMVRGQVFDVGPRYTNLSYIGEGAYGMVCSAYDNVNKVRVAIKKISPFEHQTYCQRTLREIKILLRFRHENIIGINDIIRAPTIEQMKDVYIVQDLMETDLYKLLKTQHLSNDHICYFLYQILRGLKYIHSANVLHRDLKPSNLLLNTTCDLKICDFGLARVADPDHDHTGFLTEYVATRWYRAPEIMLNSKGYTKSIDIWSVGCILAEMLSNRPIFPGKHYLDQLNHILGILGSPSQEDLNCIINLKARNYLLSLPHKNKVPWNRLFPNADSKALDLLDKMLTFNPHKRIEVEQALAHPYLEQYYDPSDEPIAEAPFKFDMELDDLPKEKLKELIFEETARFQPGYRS
inhibition [1],inhibition [2],inhibition [3],inhibition [4],inhibition [5],inhibition [6],inhibition [7],inhibition [8],inhibition [9],inhibition [10],inhibition [11],inhibition [12],inhibition [14],Kp [15],inhibition [16],inhibition [17],inhibition [18],inhibition [19],inhibition [20],Structure (SMILES),inhibition in vivo at 30 mg/kg [13]
18%,1%,18%,71%,81%,67%,7%,-2%,0%,-3%,5%,,,,,,,,,C[C@@H](Nc1c(C#N)cnc2cc(-c3ccc(-n4ccoc4=O)cc3)ccc12)C1CC1,
,,,,,,,,,,,51%,22%,1.2,12%,41%,1%,0%,6%,CC(C)Nc1c(C#N)cnc2cc(-c3cnn(C)c3)ccc12,30%
,,,,,,,,,,,7%,-2%,,16%,15%,6%,10%,28%,CC(C)Nc1c(C#N)cnc2cc(-c3ccc(S(C)(=O)=O)cc3)ccc12,
